Measurements from ChEMBL document CHEMBL1158014, “Calamistrins A and B, two new cytotoxic monotetrahydrofuran annonaceous acetogenins from Uvaria calamistrata” (J Nat Prod, 1999).
In brackets after ≈: the same amount, converted by molar mass.

Tests used:
Type in all cases: functional, cell-based
A2780 = assay: Cytotoxicity against human A2780 cells after 5 days by MTT assay; settings: A2780, 120 h
HCT-8 = assay: Cytotoxicity against human HCT8 cells after 5 days by MTT assay; settings: HCT-8, 120 h
KB = assay: Cytotoxicity against human KB cells after 5 days by MTT assay; settings: 120 h

SMILES | IC50 (A2780) [µg/mL] | IC50 (HCT-8) [µg/mL] | IC50 (KB) [µg/mL]
CCCCCCCCCCCC[C@H](O)[C@H]1CC[C@H]([C@H](O)C[C@@H](O)CCCCCCCCCCCCC2=C[C@H](C)OC2=O)O1 [CALAMISTRIN A] | 1.4 (≈ 2.3 µM) | 0.37 (≈ 0.608 µM) | 2 (≈ 3.28 µM)
CCCCCCCCCCCC[C@H](O)[C@H]1CC[C@H]([C@@H](C[C@H](O)CCCCCCCCCCCCC2=C[C@H](C)OC2=O)OC(C)=O)O1 [CALAMISTRIN B] | 3.1 (≈ 4.76 µM) | 0.022 (≈ 0.0338 µM) | 6.1 (≈ 9.37 µM)
